# Test results from patent US6914045B2, “Glycopeptide antibiotics” (Wyeth Holdings Corporation, priority 2001, dated 2005).
# Numbered stars: 1 amine (or outer) side, 2 acyl side, 3 side chain; on linkers, the order of the positions; unused ones are H or OH. Square brackets hold non-standard residues; d marks the D form. Peptide text beside a SMILES is read from it. ξ: configuration not given here. X1 = N=C1NCC(C(O)C(N[*:1])C(=O)[*:2])N1C1OC(CO)C(O)C(O)C1O; ξEnduracididine(βξ-OH,4'ξ) = N=C1NCC(C(O)C(N)C(=O)O)N1; ξCha(3ξ-Me) = CC(C1CCCCC1)C(N)C(=O)O; Cha = N[CH](CC1CCCCC1)C(=O)O
# Columns and labels:
# Assay in all cases: in vitro antibacterial evaluation, MIC by broth dilution
# Type in all cases: cell-based
# Enterococcus sp. = settings: broth dilution, 18 hours at 35° C.; for MIC Enterococcus faecalis (GC 2242): strain GC 2242; for MIC Enterococcus faecalis (GC 2691): strain GC 2691; for MIC Enterococcus faecalis (GC 3059): strain GC 3059
# In short: (§1)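 Broth dilution per NCCLS M7-A2 in Mueller-Hinton II medium, inoculum 5×10^5 CFU/mL, antibiotic range 64-0.06 μg/mL. MIC taken as lowest concentration inhibiting growth; Gram-positive panel includes recent clinical isolates resistant to methicillin, penicillin and/or vancomycin.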
# Staphylococcus sp. = settings: broth dilution, 18 hours at 35° C.; for MIC Staphylococcus aureus (ATCC 29213): strain ATCC 29213; for MIC Staphylococcus aureus (GC 1131): strain GC 1131; for MIC Staphylococcus aureus (GC 3051): strain GC 3051; for MIC Staphylococcus aureus (GC 3053): strain GC 3053; for MIC Staphylococcus aureus (GC 4541): strain GC 4541; for MIC Staphylococcus aureus (GC 4542): strain GC 4542; for MIC Staphylococcus aureus-SMITH (GC 4543): strain GC 4543; for MIC Staphylococcus aureus (GC 4544): strain GC 4544; for MIC Staphylococcus aureus (GC 4545): strain GC 4545; for MIC Staphylococcus haemolyticus (GC 4546): strain GC 4546; for MIC Coagulase Negative Staphylococcus (GC 4547): strain GC 4547; for MIC Coagulase Negative Staphylococcus (GC 4548): strain GC 4548; for MIC Coagulase Negative Staphylococcus (GC 4549): strain GC 4549; for MIC Coagulase Negative Staphylococcus (GC 4551): strain GC 4551
# In short: as §1
# Streptococcus sp. = settings: broth dilution, 18 hours at 35° C.; for MIC Streptococcus pneumoniae (ATCC 6301): strain ATCC 6301; for MIC Streptococcus pneumoniae (GC 1894): strain GC 1894; for MIC Streptococcus pyogenes (GC 4563): strain GC 4563; for MIC Streptococcus agalactiae (GC 4564): strain GC 4564; for MIC Streptococcus pneumoniae (GC 4565): strain GC 4565
# In short: as §1
# Escherichia coli = settings: broth dilution, 18 hours at 35° C.; for MIC Escherichia coli (ATCC 25922): strain ATCC 25922; for MIC Escherichia coli (GC 4559): strain GC 4559; for MIC Escherichia coli (GC 4560): strain GC 4560
# In short: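 Broth dilution MIC per NCCLS M7-A2 in Mueller-Hinton II medium, inoculum 5×10^5 CFU/mL, antibiotic range 64-0.06 μg/mL. MIC taken as lowest concentration inhibiting growth.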
structure (smiles),measurement,setting,value
"CC(C1CCCCC1)C1NC(=O)CNC(=O)C(CO)NC(=O)C(C(O)C2CNC(=N)N2C2OC(CO)C(O)C(O)C2O)NC(=O)C(C(O)C2CNC(=N)N2)NC(=O)C(CC2CCCCC2)NC1=O (stereo not drawn) [Example 53, Cyclo[3-cyclohexylalanyl-3-(2-iminoimidazolidin-4-yl)seryl-3-(3-hexopyranosyl-2-iminoimidazolidin-4-yl)serylserylglycyl-3-cyclohexyl-2-aminobutanyl]] (cyclo(G[ξCha(3ξ-Me)][Cha][ξEnduracididine(βξ-OH,4'ξ)][X1]S); configuration not given here)",MIC Enterococcus avium (GC 4558),Enterococcus sp.; Enterococcus avium (GC 4558),4 mg/L
same,MIC Enterococcus faecalis (ATCC 29212),Enterococcus sp.; Enterococcus faecalis (ATCC 29212),8 mg/L
same,MIC Enterococcus faecalis (GC 4552),Enterococcus sp.; Enterococcus faecalis (GC 4552),8 mg/L
same,MIC Enterococcus faecalis (GC 4553),Enterococcus sp.; Enterococcus faecalis (GC 4553),4 mg/L
same,MIC Enterococcus faecalis (GC 4554),Enterococcus sp.; Enterococcus faecalis (GC 4554),16 mg/L
same,MIC Enterococcus faecalis (GC 6189),Enterococcus sp.; Enterococcus faecalis (GC 6189),4 mg/L
same,MIC Enterococcus faecium (GC 2243),Enterococcus sp.; Enterococcus faecium (GC 2243),2 mg/L
same,MIC Enterococcus faecium (GC 4556),Enterococcus sp.; Enterococcus faecium (GC 4556),8 mg/L
same,MIC Enterococcus faecium (GC 4557),Enterococcus sp.; Enterococcus faecium (GC 4557),2 mg/L
same,MIC Enterococcus faecalis (ATCC 29212),Enterococcus sp.; strain ATCC 29212,8 mg/L
same,MIC Enterococcus faecalis (GC 2242),Enterococcus sp.,8 mg/L
same,MIC Enterococcus faecium (GC 2243),Enterococcus sp.; strain GC 2243,2 mg/L
same,MIC Enterococcus faecalis (GC 2691),Enterococcus sp.,8 mg/L
same,MIC Enterococcus faecalis (GC 3059),Enterococcus sp.,8 mg/L
same,MIC Enterococcus faecalis (GC 4552),Enterococcus sp.; strain GC 4552,8 mg/L
same,MIC Enterococcus faecalis (GC 4553),Enterococcus sp.; strain GC 4553,4 mg/L
same,MIC Enterococcus faecalis (GC 4554),Enterococcus sp.; strain GC 4554,16 mg/L
same,MIC Enterococcus faecium (GC 4556),Enterococcus sp.; strain GC 4556,8 mg/L
same,MIC Enterococcus faecium (GC 4557),Enterococcus sp.; strain GC 4557,2 mg/L
same,MIC Enterococcus avium (GC 4558),Enterococcus sp.; strain GC 4558,4 mg/L
same,MIC Enterococcus faecalis (GC 6189),Enterococcus sp.; strain GC 6189,4 mg/L
same,MIC Staphylococcus aureus (ATCC 29213),Staphylococcus sp.,2 mg/L
same,MIC Staphylococcus aureus (GC 1131),Staphylococcus sp.,4 mg/L
same,MIC Staphylococcus aureus (GC 3051),Staphylococcus sp.,2 mg/L
same,MIC Staphylococcus aureus (GC 3053),Staphylococcus sp.,4 mg/L
same,MIC Staphylococcus aureus (GC 4541),Staphylococcus sp.,4 mg/L
same,MIC Staphylococcus aureus (GC 4542),Staphylococcus sp.,2 mg/L
same,MIC Staphylococcus aureus-SMITH (GC 4543),Staphylococcus sp.,2 mg/L
same,MIC Staphylococcus aureus (GC 4544),Staphylococcus sp.,4 mg/L
same,MIC Staphylococcus aureus (GC 4545),Staphylococcus sp.,2 mg/L
same,MIC Staphylococcus haemolyticus (GC 4546),Staphylococcus sp.,1 mg/L
same,MIC Coagulase Negative Staphylococcus (GC 4547),Staphylococcus sp.,2 mg/L
same,MIC Coagulase Negative Staphylococcus (GC 4548),Staphylococcus sp.,2 mg/L
same,MIC Coagulase Negative Staphylococcus (GC 4549),Staphylococcus sp.,1 mg/L
same,MIC Coagulase Negative Staphylococcus (GC 4551),Staphylococcus sp.,2 mg/L
same,MIC Streptococcus pneumoniae (ATCC 6301),Streptococcus sp.,1 mg/L
same,MIC Streptococcus pneumoniae (GC 1894),Streptococcus sp.,1 mg/L
same,MIC Streptococcus pyogenes (GC 4563),Streptococcus sp.,1 mg/L
same,MIC Streptococcus agalactiae (GC 4564),Streptococcus sp.,1 mg/L
same,MIC Streptococcus pneumoniae (GC 4565),Streptococcus sp.,4 mg/L
same,MIC Escherichia coli (ATCC 25922),Escherichia coli,128 mg/L
same,MIC Escherichia coli (GC 4559),Escherichia coli,128 mg/L
same,MIC Escherichia coli (GC 4560),Escherichia coli,4 mg/L
"COc1cc(-c2nc3cc(CC4NC(=O)C(C(C)c5ccccc5)NC(=O)CNC(=O)C(CO)NC(=O)C(C(O)C5CNC(=N)N5C5OC(CO)C(O)C(O)C5O)NC(=O)C(C(O)C5CNC(=N)N5)NC4=O)ccc3o2)cc(OC)c1OC (stereo not drawn) [Example 34, Cyclo[3-[2-(3,4,5-trimethoxyphenyl)-1,3-benzoxazol-5-yl]alanyl-3-(2-iminoimidazolidin-4-yl)seryl-3-(3-hexopyranosyl-2-iminoimidazolidin-4-yl)serylserylglycyl-β-methylphenyl-alanyl]]",MIC Enterococcus faecalis (ATCC 29212),Enterococcus sp.; strain ATCC 29212,64 mg/L
same,MIC Enterococcus faecalis (GC 2242),Enterococcus sp.,32 mg/L
same,MIC Enterococcus faecium (GC 2243),Enterococcus sp.; strain GC 2243,32 mg/L
same,MIC Enterococcus faecalis (GC 2691),Enterococcus sp.,32 mg/L
same,MIC Enterococcus faecalis (GC 3059),Enterococcus sp.,32 mg/L
same,MIC Enterococcus faecalis (GC 4552),Enterococcus sp.; strain GC 4552,32 mg/L
same,MIC Enterococcus faecalis (GC 4553),Enterococcus sp.; strain GC 4553,32 mg/L
same,MIC Enterococcus faecalis (GC 4554),Enterococcus sp.; strain GC 4554,32 mg/L
same,MIC Enterococcus faecium (GC 4556),Enterococcus sp.; strain GC 4556,64 mg/L
same,MIC Enterococcus faecium (GC 4557),Enterococcus sp.; strain GC 4557,8 mg/L
same,MIC Enterococcus avium (GC 4558),Enterococcus sp.; strain GC 4558,16 mg/L
same,MIC Enterococcus faecalis (GC 6189),Enterococcus sp.; strain GC 6189,64 mg/L
same,MIC Staphylococcus aureus (ATCC 29213),Staphylococcus sp.,32 mg/L
same,MIC Staphylococcus aureus (GC 1131),Staphylococcus sp.,32 mg/L
same,MIC Staphylococcus aureus (GC 3051),Staphylococcus sp.,16 mg/L
same,MIC Staphylococcus aureus (GC 3053),Staphylococcus sp.,32 mg/L
same,MIC Staphylococcus aureus (GC 4541),Staphylococcus sp.,32 mg/L
same,MIC Staphylococcus aureus (GC 4542),Staphylococcus sp.,32 mg/L
same,MIC Staphylococcus aureus-SMITH (GC 4543),Staphylococcus sp.,16 mg/L
same,MIC Staphylococcus aureus (GC 4544),Staphylococcus sp.,16 mg/L
same,MIC Staphylococcus aureus (GC 4545),Staphylococcus sp.,32 mg/L
same,MIC Staphylococcus haemolyticus (GC 4546),Staphylococcus sp.,8 mg/L
same,MIC Coagulase Negative Staphylococcus (GC 4547),Staphylococcus sp.,16 mg/L
same,MIC Coagulase Negative Staphylococcus (GC 4548),Staphylococcus sp.,16 mg/L
same,MIC Coagulase Negative Staphylococcus (GC 4549),Staphylococcus sp.,4 mg/L
same,MIC Coagulase Negative Staphylococcus (GC 4551),Staphylococcus sp.,32 mg/L
same,MIC Coagulase Negative Staphylococcus (GC 6257),Staphylococcus sp.; strain GC 6257,8 mg/L
same,MIC Streptococcus pneumoniae (ATCC 6301),Streptococcus sp.,32 mg/L
same,MIC Streptococcus pneumoniae (GC 1894),Streptococcus sp.,16 mg/L
same,MIC Streptococcus pyogenes (GC 4563),Streptococcus sp.,8 mg/L
same,MIC Streptococcus agalactiae (GC 4564),Streptococcus sp.,32 mg/L
same,MIC Streptococcus pneumoniae (GC 4565),Streptococcus sp.,32 mg/L
same,MIC Escherichia coli (ATCC 25922),Escherichia coli,64 mg/L
same,MIC Escherichia coli (GC 4559),Escherichia coli,64 mg/L
same,MIC Escherichia coli (GC 4560),Escherichia coli,16 mg/L
